Reference: ChEMBL document CHEMBL1201862, “PubChem BioAssay data set” (2004)
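Following 48 hours of exposure in 96-well plates, responses at five concentrations were used to interpolate endpoints linearly. GI50: concentration for 50% inhibition of growth.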 Active and inactive are the calls of the source. Cut-off read from the data, not from the text of the source: active = GI50 up to about 1.1 µM and inactive = higher.

Tests used:
Assay in all cases: growth of human tumour cells (NCI), 48 h
HL-60 = test system: HL-60
CAKI-1 = test system: CAKI-1
K562 = test system: K562
BT-549 = test system: BT-549
UO-31 = test system: UO-31
SK-MEL-28 = test system: SK-MEL-28
UACC-62 = test system: UACC-62
T47D = test system: T47D
TK-10 = test system: TK-10
NCI-H460 = test system: NCI-H460
SK-MEL-5 = test system: SK-MEL-5
NCI-H226 = test system: NCI-H226
SW-620 = test system: SW-620
SN12C = test system: SN12C
HCC 2998 = test system: HCC 2998
KM12 = test system: KM12
MDA-N = test system: MDA-N
A498 = test system: A498
MCF7 = test system: MCF7
SF-268 = test system: SF-268
ACHN = test system: ACHN
SF-539 = test system: SF-539
SK-OV-3 = test system: SK-OV-3
HCT-15 = test system: HCT-15
Hs-578T = test system: Hs-578T
SR = test system: SR
RPMI-8226 = test system: RPMI-8226
SK-MEL-2 = test system: SK-MEL-2
M14 = test system: M14
OVCAR-4 = test system: OVCAR-4
NCI/ADR-RES = test system: NCI/ADR-RES
HOP-62 = test system: HOP-62
HCT-116 = test system: HCT-116
MOLT-4 = test system: MOLT-4
MDA-MB-435 = test system: MDA-MB-435
U-251 = test system: U-251
CCRF-CEM = test system: CCRF-CEM
DU-145 = test system: DU-145
LOX IMVI = test system: LOX IMVI
OVCAR-5 = test system: OVCAR-5
HT-29 = test system: HT-29
COLO 205 = test system: COLO 205
A549 = test system: A549
HOP-92 = test system: HOP-92
SNB-19 = test system: SNB-19
Malme-3M = test system: Malme-3M
UACC-257 = test system: UACC-257
OVCAR-3 = test system: OVCAR-3
MDA-MB-231 = test system: MDA-MB-231
NCI-H23 = test system: NCI-H23
EKVX = test system: EKVX
SF-295 = test system: SF-295
NCI-H522 = test system: NCI-H522
RXF 393 = test system: RXF 393
786-0 = test system: 786-0
OVCAR-8 = test system: OVCAR-8
IGROV-1 = test system: IGROV-1
SNB-75 = test system: SNB-75

Structure (SMILES): COc1ccccc1N1C(=O)/C(=C\c2cc(OC)c(OC)c(OC)c2)SC1c1ccccc1 (stereo unspecified)
- GI50 (HL-60): 26.2 µM (inactive)
- GI50 (CAKI-1): > 100 µM (inactive)
- GI50 (K562): 4.33 µM (inactive)
- GI50 (BT-549): 84.9 µM (inactive)
- GI50 (UO-31): 11.5 µM (inactive)
- GI50 (SK-MEL-28): 45.4 µM (inactive)
- GI50 (UACC-62): 36.1 µM (inactive)
- GI50 (T47D): 36.6 µM (inactive)
- GI50 (TK-10): 53.3 µM (inactive)
- GI50 (NCI-H460): 51.5 µM (inactive)
- GI50 (SK-MEL-5): 14.2 µM (inactive)
- GI50 (NCI-H226): 28.9 µM (inactive)
- GI50 (SW-620): 53.1 µM (inactive)
- GI50 (SN12C): 91 µM (inactive)
- GI50 (HCC 2998): > 100 µM (inactive)
- GI50 (KM12): 21.1 µM (inactive)
- GI50 (MDA-N): 15.2 µM (inactive)
- GI50 (A498): > 100 µM (inactive)
- GI50 (MCF7): 18.2 µM (inactive)
- GI50 (SF-268): 31.6 µM (inactive)
- GI50 (ACHN): 44.4 µM (inactive)
- GI50 (SF-539): 99.3 µM (inactive)
- GI50 (SK-OV-3): 21.4 µM (inactive)
- GI50 (HCT-15): 44.7 µM
- GI50 (Hs-578T): 24 µM (inactive)
- GI50 (SR): 13.3 µM (inactive)
- GI50 (RPMI-8226): 3.11 µM (inactive)
- GI50 (SK-MEL-2): 68.4 µM (inactive)
- GI50 (M14): 16.5 µM (inactive)
- GI50 (OVCAR-4): 49.4 µM (inactive)
- GI50 (NCI/ADR-RES): 43 µM (inactive)
- GI50 (HOP-62): 27.8 µM (inactive)
- GI50 (HCT-116): 18.5 µM (inactive)
- GI50 (MOLT-4): 9.95 µM (inactive)
- GI50 (MDA-MB-435): 14.9 µM (inactive)
- GI50 (U-251): 24.4 µM (inactive)
- GI50 (CCRF-CEM): 6.76 µM (inactive)
- GI50 (DU-145): > 100 µM (inactive)
- GI50 (LOX IMVI): 26.9 µM (inactive)
- GI50 (OVCAR-5): > 100 µM (inactive)
- GI50 (HT-29): 45.3 µM (inactive)
- GI50 (COLO 205): 24.1 µM (inactive)
- GI50 (A549): 57.4 µM (inactive)
- GI50 (HOP-92): 22.7 µM (inactive)
- GI50 (SNB-19): 27 µM (inactive)
- GI50 (Malme-3M): 20.3 µM (inactive)
- GI50 (UACC-257): 36.1 µM (inactive)
- GI50 (OVCAR-3): 37.5 µM (inactive)
- GI50 (MDA-MB-231): 44.8 µM (inactive)
- GI50 (NCI-H23): 31.4 µM (inactive)
- GI50 (EKVX): 13.2 µM (inactive)
- GI50 (SF-295): 23.1 µM (inactive)
- GI50 (NCI-H522): 13.7 µM (inactive)
- GI50 (RXF 393): 14.5 µM (inactive)
- GI50 (786-0): 97.5 µM (inactive)
- GI50 (OVCAR-8): 42 µM (inactive)

Structure (SMILES): FC(F)(F)c1ccc2nc(Sc3ccccn3)cnc2c1
- GI50 (HL-60): 4.14 µM (inactive)
- GI50 (CAKI-1): 62.4 µM (inactive)
- GI50 (K562): 51.4 µM (inactive)
- GI50 (BT-549): 29.6 µM (inactive)
- GI50 (UO-31): 22.7 µM (inactive)
- GI50 (SK-MEL-28): > 100 µM (inactive)
- GI50 (UACC-62): 29.2 µM (inactive)
- GI50 (T47D): 28 µM (inactive)
- GI50 (TK-10): 31 µM (inactive)
- GI50 (NCI-H460): 48.4 µM (inactive)
- GI50 (SK-MEL-5): 20.7 µM (inactive)
- GI50 (NCI-H226): 26.2 µM (inactive)
- GI50 (SW-620): 34.4 µM (inactive)
- GI50 (SN12C): 35.5 µM (inactive)
- GI50 (HCC 2998): 17.1 µM (inactive)
- GI50 (KM12): 88.7 µM (inactive)
- GI50 (MDA-N): 69.2 µM (inactive)
- GI50 (A498): 19.7 µM (inactive)
- GI50 (MCF7): 74.8 µM (inactive)
- GI50 (SF-268): 49.2 µM (inactive)
- GI50 (ACHN): 16.7 µM (inactive)
- GI50 (SF-539): 16.7 µM (inactive)
- GI50 (SK-OV-3): 33.8 µM (inactive)
- GI50 (IGROV-1): 75.5 µM (inactive)
- GI50 (HCT-15): 50.5 µM
- GI50 (Hs-578T): 54.7 µM (inactive)
- GI50 (SK-MEL-2): 15.9 µM (inactive)
- GI50 (M14): 48 µM (inactive)
- GI50 (OVCAR-4): 79.8 µM (inactive)
- GI50 (NCI/ADR-RES): 37.4 µM (inactive)
- GI50 (HOP-62): 35.3 µM (inactive)
- GI50 (HCT-116): 44.3 µM (inactive)
- GI50 (MOLT-4): 36.8 µM (inactive)
- GI50 (MDA-MB-435): 58.1 µM (inactive)
- GI50 (U-251): 18.8 µM (inactive)
- GI50 (CCRF-CEM): 2.94 µM (inactive)
- GI50 (DU-145): 46.6 µM (inactive)
- GI50 (LOX IMVI): 40.6 µM (inactive)
- GI50 (OVCAR-5): > 100 µM (inactive)
- GI50 (HT-29): 51.8 µM (inactive)
- GI50 (COLO 205): 53.2 µM (inactive)
- GI50 (A549): 38.8 µM (inactive)
- GI50 (HOP-92): 89.1 µM (inactive)
- GI50 (SNB-75): 29.5 µM (inactive)
- GI50 (SNB-19): 24.2 µM (inactive)
- GI50 (Malme-3M): > 100 µM (inactive)
- GI50 (UACC-257): 79.3 µM (inactive)
- GI50 (MDA-MB-231): 38.4 µM (inactive)
- GI50 (NCI-H23): 28.4 µM (inactive)
- GI50 (EKVX): 49.2 µM (inactive)
- GI50 (SF-295): 60.1 µM (inactive)
- GI50 (NCI-H522): 21.7 µM (inactive)
- GI50 (RXF 393): 19.1 µM (inactive)
- GI50 (786-0): 23.5 µM (inactive)
- GI50 (OVCAR-8): 38.8 µM (inactive)
